Experimental data from ChEMBL document CHEMBL5236565, “Design, synthesis, and biological evaluation of novel 2'-methyl-2'-fluoro-6-methyl-7-alkynyl-7-deazapurine nucleoside analogs as anti-Zika virus agents” (Eur J Med Chem, 2022).
The source made the active and inactive calls. The calls are words filed in the database; no cut-off is given here.

Tests used:
A549 [1] = assay: Cytotoxicity against human A549 cells assessed as cell growth inhibition measured after 24 hrs by MTT assay; format: functional
Zika virus [2] = assay: Antiviral activity against ZIKV ZG-01 infected in human A549 cells assessed as reduction in viral induced cytopathic effect by measuring reduction in PFU measured after 4 days by neutral red staining based plaque assay; format: functional, organism-based; conditions: ZG-01, A549, 96 h; for EC90: time 4 day
Zika virus [3] = assay: Antiviral activity against ZIKV infected in human A549 cells at 50 uM by microtiter assay relative to control; format: functional
Zika virus [4] = assay: Antiviral activity against ZIKV MR766 infected in human SNB-19 cells assessed as reduction in viral induced cytopathic effect by measuring reduction in PFU measured after 4 days by neutral red staining based plaque assay; format: functional, organism-based; conditions: MR766, SNB-19, 96 h
SNB-19 = assay: Cytotoxicity against human SNB-19 cells assessed as cell growth inhibition measured after 24 hrs by MTT assay; format: functional
Zika virus [5] = assay: Antiviral activity against ZIKV ZG-01 infected in African green monkey Vero cells assessed as reduction in viral induced cytopathic effect by measuring reduction in PFU measured after 4 days by neutral red staining based plaque assay; format: functional, organism-based; conditions: ZG-01, Vero, 96 h
Vero = assay: Downregulation of ZIKV E protein cleaved caspase 3 expression in African green monkey Vero cells at 10 to 50 uM measured after 48 hrs by Western blotting analysis; format: functional, cell-based; conditions: Chlorocebus sabaeus, dose 10-50 µM
Zika virus [6] = assay: Antiviral activity against ZIKV MR766 infected in human Huh-7 cells assessed as reduction in viral induced cytopathic effect by measuring reduction in PFU measured after 4 days by neutral red staining based plaque assay; format: functional, organism-based; conditions: MR766, Huh-7, 96 h
A549 [7] = assay: Downregulation of ZIKV E protein cleaved caspase 3 expression in human A549 cells at 5 to 25 uM by immunofluorescence analysis; format: functional, cell-based; conditions: dose 5-25 µM
Zika virus [8] = assay: Antiviral activity against ZIKV MR766 infected in human A549 cells assessed as reduction in viral induced cytopathic effect by measuring reduction in PFU measured after 4 days by neutral red staining based plaque assay; format: functional, organism-based; conditions: MR766, A549, 96 h
Zika virus [9] = assay: Antiviral activity against ZIKV ZG-01 infected in human Huh-7 cells assessed as reduction in viral induced cytopathic effect by measuring reduction in PFU measured after 4 days by neutral red staining based plaque assay; format: functional, organism-based; conditions: ZG-01, Huh-7, 96 h
Zika virus [10] = assay: Antiviral activity against ZIKV ZG-01 infected in human SNB-19 cells assessed as reduction in viral induced cytopathic effect by measuring reduction in PFU measured after 4 days by neutral red staining based plaque assay; format: functional, organism-based; conditions: ZG-01, SNB-19, 96 h
A549 [11] = assay: Downregulation of ZIKV E protein cleaved caspase 3 expression in human A549 cells at 10 to 50 uM measured after 48 hrs by Western blotting analysis; format: functional, cell-based; conditions: dose 10-50 µM
Huh-7 = assay: Cytotoxicity against human Huh-7 cells assessed as cell growth inhibition measured after 24 hrs by MTT assay; format: functional
[12] = Cytotoxicity against African green monkey Vero cells assessed as cell growth inhibition measured after 24 hrs by MTT assay; format: toxicity, cell-based; conditions: chlorocebus sabaeus
Zika virus [13] = assay: Antiviral activity against ZIKV MR766 infected in African green monkey Vero cells assessed as reduction in viral induced cytopathic effect by measuring reduction in PFU measured after 4 days by neutral red staining based plaque assay; format: functional, organism-based; conditions: 96 h

SMILES: Cc1ncnc2c1c(C#Cc1ccc(Br)cc1F)cn2[C@@H]1O[C@H](CO)[C@@H](O)[C@@]1(C)F
- CC50 (A549 [1]): > 50 µM
- EC50 (Zika virus [2]): 3 µM
- EC90 (Zika virus [2]): 7.9 µM

SMILES: C#Cc1cn([C@@H]2O[C@H](CO)[C@@H](O)[C@@]2(C)F)c2ncnc(C)c12
- Activity (Zika virus [3]): <10%

SMILES: Cc1ncnc2c1c(/C=C/c1ccccc1)cn2[C@@H]1O[C@H](CO)[C@@H](O)[C@@]1(C)F
- Activity (Zika virus [3]): <10%

SMILES: Cc1cccnc1C#Cc1cn([C@@H]2O[C@H](CO)[C@@H](O)[C@@]2(C)F)c2ncnc(C)c12
- Activity (Zika virus [3]): <10%

SMILES: Cc1ncnc2c1c(C#Cc1ccccc1)cn2[C@@H]1O[C@H](CO)[C@@H](O)[C@@]1(C)F
- CC50 (A549 [1]): > 50 µM
- EC50 (Zika virus [2]): 13.8 µM
- EC90 (Zika virus [2]): 33.6 µM

SMILES: CCOC(=O)c1ccc(C#Cc2cn([C@@H]3O[C@H](CO)[C@@H](O)[C@@]3(C)F)c3ncnc(C)c23)s1
- Activity (Zika virus [3]): >90%
- CC50 (A549 [1]): > 50 µM
- EC50 (Zika virus [2]): 39.8 µM
- EC90 (Zika virus [2]): > 50 µM

SMILES: Cc1ncnc2c1c(C#Cc1nccs1)cn2[C@@H]1O[C@H](CO)[C@@H](O)[C@@]1(C)F
- Activity (Zika virus [3]): <10%

SMILES: CC#Cc1cn([C@@H]2O[C@H](CO)[C@@H](O)[C@@]2(C)F)c2ncnc(C)c12
- Activity (Zika virus [3]): <10%

SMILES: Cc1ncnc2c1c(C#Cc1cccc(F)c1)cn2[C@@H]1O[C@H](CO)[C@@H](O)[C@@]1(C)F
- Activity (Zika virus [3]): <10%

SMILES: NC(=O)c1ncn([C@@H]2O[C@H](CO)[C@@H](O)[C@H]2O)n1 [RIBAVIRIN]
- EC50 (Zika virus [4]): > 80 µM
- EC90 (Zika virus [4]; time 4 day): > 80 µM
- CC50 (SNB-19): 485 µM
- EC50 (Zika virus [5]): > 80 µM
- EC90 (Zika virus [5]; time 4 day): > 80 µM
- Activity (Vero): inactive
- EC50 (Zika virus [6]): 17.7 µM
- EC90 (Zika virus [6]; time 4 day): 51 µM
- CC50 (A549 [1]): > 50 µM
- EC50 (Zika virus [2]): 36.1 µM
- EC90 (Zika virus [2]): 70.3 µM
- Activity (A549 [7]): inactive
- EC50 (Zika virus [8]): 38.1 µM
- EC90 (Zika virus [8]; time 4 day): 75.9 µM
- EC50 (Zika virus [9]): 14.1 µM
- EC90 (Zika virus [9]; time 4 day): 47.4 µM
- EC50 (Zika virus [10]): > 80 µM
- EC90 (Zika virus [10]; time 4 day): > 80 µM
- Activity (A549 [11]): inactive
- CC50 (Huh-7): 513 µM
- CC50 at 24 h [12]: 470 µM
- EC50 (Zika virus [13]): > 80 µM
- EC90 (Zika virus [13]; time 4 day): > 80 µM

SMILES: Cc1ccc(C#Cc2cn([C@@H]3O[C@H](CO)[C@@H](O)[C@@]3(C)F)c3ncnc(C)c23)cc1
- Activity (Zika virus [3]): >90%
- CC50 (A549 [1]): > 50 µM
- EC50 (Zika virus [2]): 11.8 µM
- EC90 (Zika virus [2]): 24.2 µM

SMILES: Cc1ncnc2c1c(C#Cc1ccccc1F)cn2[C@@H]1O[C@H](CO)[C@@H](O)[C@@]1(C)F
- Activity (Zika virus [3]): >90%
- CC50 (A549 [1]): > 50 µM
- EC50 (Zika virus [2]): 4.9 µM
- EC90 (Zika virus [2]): 19.7 µM

SMILES: COc1ccc(C#Cc2cn([C@@H]3O[C@H](CO)[C@@H](O)[C@@]3(C)F)c3ncnc(C)c23)cc1
- Activity (Zika virus [3]): >90%
- CC50 (A549 [1]): > 50 µM
- EC50 (Zika virus [2]): 11.8 µM
- EC90 (Zika virus [2]): 40.7 µM

SMILES: Cc1ncnc2c1c(C#Cc1ccccn1)cn2[C@@H]1O[C@H](CO)[C@@H](O)[C@@]1(C)F
- Activity (Zika virus [3]): 18.8%

SMILES: COc1cccc(C#Cc2cn([C@@H]3O[C@H](CO)[C@@H](O)[C@@]3(C)F)c3ncnc(C)c23)c1
- Activity (Zika virus [3]): >90%
- CC50 (A549 [1]): > 50 µM
- EC50 (Zika virus [2]): 14.8 µM
- EC90 (Zika virus [2]): 40.4 µM

SMILES: COCc1ccccc1C#Cc1cn([C@@H]2O[C@H](CO)[C@@H](O)[C@@]2(C)F)c2ncnc(C)c12
- Activity (Zika virus [3]): >90%
- CC50 (A549 [1]): > 50 µM
- EC50 (Zika virus [2]): 13.5 µM
- EC90 (Zika virus [2]): > 50 µM

SMILES: Cc1ncnc2c1c(-c1ccccc1)cn2[C@@H]1O[C@H](CO)[C@@H](O)[C@@]1(C)F
- Activity (Zika virus [3]): <10%

SMILES: COc1ccccc1C#Cc1cn([C@@H]2O[C@H](CO)[C@@H](O)[C@@]2(C)F)c2ncnc(C)c12
- Activity (Zika virus [3]): >90%
- CC50 (A549 [1]): > 50 µM
- EC50 (Zika virus [2]): 40.3 µM
- EC90 (Zika virus [2]): > 50 µM

SMILES: Cc1ccc(C#Cc2cn([C@@H]3O[C@H](CO)[C@@H](O)[C@@]3(C)F)c3ncnc(C)c23)s1
- Activity (Zika virus [3]): 43.9%

SMILES: Cc1ncnc2c1c(-n1cc(-c3ccccc3)nn1)cn2[C@@H]1O[C@H](CO)[C@@H](O)[C@@]1(C)F
- Activity (Zika virus [3]): <10%
